Laboratory results taken from patent publication US5523314A, “Compounds useful as hypoglycemic agents and for treating Alzheimer's disease” (priority 1994, dated 1996).
Structures can show the parent of a compound that is named as a salt. Where two headings read alike, the source gives them in different places.

Assays:
blood glucose level [1] = assay: Hypoglycemic activity in obese diabetic mice (Table 1); assay type: in vivo, male viable yellow obese-diabetic mice; settings: Mus musculus, ip
Method: The hypoglycemic activity of the compounds of the present invention was determined by testing the efficacy of the compounds in vivo in male viable yellow obese-diabetic mice. The test procedure is described in detail below.
Test formulations were prepared by dissolving the test compound in a saline solution containing 2% Emulphor (a polyoxyethylated vegetable oil surfactant from GAP Corp.) to provide the dose level desired. Each test formulation was administered to six viable yellow obese-diabetic mice intraperitoneally at the beginning of the experiment. Blood glucose levels were determined immediately before the first dose and at 2 and 4 hours thereafter using glucose oxidase. A mean was taken of the 6 values obtained before the first dose and at the 2 and 4 hour intervals. In Table 1, Column 1 provides the example number of the test compound, Column 2 provides the dose level of compound tested, and Columns 3 and 4 provide a measurement of the test animal's blood glucose level 2 and 4 hours after test compound administration, respectively, as a percentage of the test animal' s pre-administration blood glucose level.

blood glucose level [2] = assay: Hypoglycemic activity in normal fed rats (Table 2); assay type: in vivo, male Sprague Dawley rats; settings: Rattus norvegicus
Method: The procedure used in this test system is described below.
The desired dose level of each test formulation was administered to four rats by oral […] at the beginning of the experiment. Blood glucose levels were determined immediately before the first dose and at 3 and 5 hours thereafter by an enzymatic procedure employing glucose oxidase and peroxidase coupled with a chromogenic oxygen acceptor. A mean was taken of the 4 values obtained before the first dose and at the 3 and 5 hour intervals.

Human liver cathepsin D = target: T1, Human liver cathepsin D (Homo sapiens, UniProt P07339); assay: Cathepsin D inhibition, fluorometric assay (Tables 5 and 6); assay type: biochemical; settings: for inhibition at 4.15 µg/mL (stock): Compound Stock Concentration 4.15 μg/ml
T1 construct: purchased Athens Research and Technology, Athens, Ga; host or cells: human liver
Method: Human liver cathepsin D (Athens Research and Technology, Athens, Ga.) was diluted in assay buffer, 200 mM NaOAc, pH 4.5, 150 mM NaCl to 500 ng/mL and then 100 μL of this cathepsin D solution was added to each well of a 96 well plate with the exception of control wells which received just 100 μL of assay buffer. […] Blank and enzyme control wells each received 5 μL of the DMSO vehicle.
After incubation at 37° C. for 30 minutes, cathepsin D activity was terminated by the addition of 100 μL per well of 400 mU/mL microsomal leucine aminopeptidase (EC 3.4.11.2, Sigma, St. Louis, Mo.) in 1M Tris-HCl, pH 8.0.
Following a two hour incubation at 37° C., to allow the aminopeptidase to release the fluorophore, 7-amido-4-methylcoumarin (AMC) from the products of cathepsin D cleavage, the plates were again analyzed in the fluorometer. In order to check for potential false positives, i.e., inhibitors of microsomal leucine aminopeptidase, residual aminopeptidase activity was monitored directly in each well by the addition of 20 μL/well of 2.5 mM Leu-pNA (Bachem Biosciences, Philadelphia, Pa.) in 10% DMSO.

[3] = 2 h, intraperitoneal, 2 hrs, read-out: Percent of Initial Blood Glucose Level After 2 hrs.
[4] = 4 h, intraperitoneal, 4 hrs, read-out: Percent of Initial Blood Glucose Level After 4 hrs.
[5] = oral, 3 hrs, read-out: Percent of Initial Blood Glucose Level After 3 hrs.
[6] = oral, 5 hrs, read-out: Percent of Initial Blood Glucose Level After 5 hrs.
[7] = 200 mg/kg, oral, 3 hrs, read-out: Percent of Initial Blood Glucose Level After 3 hrs.
[8] = 200 mg/kg, oral, 5 hrs, read-out: Percent of Initial Blood Glucose Level After 5 hrs.
[9] = intraperitoneal, 2 hrs, read-out: Percent of Initial Blood Glucose Level After 2 hrs.
[10] = intraperitoneal, 4 hrs, read-out: Percent of Initial Blood Glucose Level After 4 hrs.

T1 sequence (P07339 169-412 limits assumed): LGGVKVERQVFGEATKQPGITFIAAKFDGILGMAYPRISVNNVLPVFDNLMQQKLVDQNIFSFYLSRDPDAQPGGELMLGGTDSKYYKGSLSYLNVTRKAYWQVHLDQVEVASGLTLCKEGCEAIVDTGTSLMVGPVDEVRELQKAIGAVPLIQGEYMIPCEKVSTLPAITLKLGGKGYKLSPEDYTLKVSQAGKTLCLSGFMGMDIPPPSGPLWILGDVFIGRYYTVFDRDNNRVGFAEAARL
T1 sequence (P07339 65-161 limits assumed): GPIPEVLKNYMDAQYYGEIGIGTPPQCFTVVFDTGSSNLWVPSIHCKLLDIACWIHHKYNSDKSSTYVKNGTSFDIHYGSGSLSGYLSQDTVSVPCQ

| Compound | response vs control in vivo at 50 mg/kg (blood glucose level [1]; [3]) [%] | response vs control in vivo at 50 mg/kg (blood glucose level [1]; [4]) [%] | response vs control in vivo at 200 mg/kg (blood glucose level [2]; [7]) [%] | response vs control in vivo at 200 mg/kg (blood glucose level [2]; [8]) [%] | also measured |
| --- | --- | --- | --- | --- | --- |
| O=C1NC(=S)SC1=Cc1ccco1 [Example 15, 5-[(2-furanyl)methylene]-2-thioxo-4-thiazolidinone] | 73 ± 5 | 62 ± 4 | – | – | response vs control in vivo at 167 mg/kg (blood glucose level [2]; [5]): 84%; response vs control in vivo at 167 mg/kg (blood glucose level [2]; [6]): 87% |
| O=C1NC(=S)SC1=Cc1ccncc1 [Example 16, 5-[(4-pyridyl)methylene]-2-thioxo-4-thiazolidinone] | 94 ± 8 | 96 ± 9 | 92 | 79 | – |
| COc1cc(C=C2SC(=S)NC2=O)cc(OC)c1OC [Example 17, 5-[(3,4,5-trimethoxyphenyl)methylene]-2-thioxo-4-thiazolidinone] | 88 ± 8 | 89 ± 10 | 78 | 68 | – |
| COc1cccc(C=C2SC(=S)NC2=O)c1OC [Example 24, 5-[(2,3-dimethoxyphenyl)methylene]-2-thioxo-4-thiazolidinone] | 78 ± 4 | 80 ± 5 | 100 | 100 | – |
| COc1cccc(C=C2SC(=S)NC2=O)c1 [Example 25, 5-[(3-methoxyphenyl)methylene]-2-thioxo-4-thiazolidinone] | – | – | 100 | 100 | response vs control in vivo at 25 mg/kg (blood glucose level [1]; [9]): 84 ± 5%; response vs control in vivo at 25 mg/kg (blood glucose level [1]; [10]): 87 ± 6%; response vs control in vivo at 50 mg/kg (blood glucose level [1]; [9]): 78 ± 4%; response vs control in vivo at 50 mg/kg (blood glucose level [1]; [10]): 74 ± 4% |
| COc1ccccc1C=C1SC(=S)NC1=O [Example 26, 5-[(2-methoxyphenyl)methylene]-2-thioxo-4-thiazolidinone] | 80 ± 4 | 75 ± 2 | 100 | 100 | – |
| CCOc1cc(C=C2SC(=S)NC2=O)ccc1O [Example 32, 5-[(3-ethoxy-4-hydroxyphenyl)methylene]-2-thioxo-4-thiazolidinone] | 75 ± 4 | 80 ± 8 | 100 | 96 | inhibition at 4.15 µg/mL (stock) (Human liver cathepsin D): 75% |
| CCCCOc1ccc(C=C2SC(=S)NC2=O)cc1OC [Example 41, 5-[(3-methoxy-4-butoxyphenyl)methylene]-2-thioxo-4-thiazolidinone] | 61 ± 3 | – | – | – | response vs control in vivo at 5 mg/kg (blood glucose level [1]; 2 h, 5 mg/kg, intraperitoneal, 2 hrs, read-out: Percent of Initial Blood Glucose Level After 2 hrs.): 93 ± 10%; response vs control in vivo at 10 mg/kg (blood glucose level [1]; 2 h, 10 mg/kg, intraperitoneal, 2 hrs, read-out: Percent of Initial Blood Glucose Level After 2 hrs.): 80 ± 7%; response vs control in vivo at 160 mg/kg (blood glucose level [2]; [5]): 76%; response vs control in vivo at 160 mg/kg (blood glucose level [2]; [6]): 67% |
| CCOc1ccc(C=C2SC(=S)NC2=O)cc1OC [Example 48, 5-[(3-methoxy-4-ethoxyphenyl)methylene]-2-thioxo-4-thiazolidinone] | 70 ± 3 | 65 ± 3 | – | – | response vs control in vivo at 25 mg/kg (blood glucose level [1]; [3]): 87 ± 4%; response vs control in vivo at 25 mg/kg (blood glucose level [1]; [4]): 81 ± 5%; response vs control in vivo at 167 mg/kg (blood glucose level [2]; [5]): 87%; response vs control in vivo at 167 mg/kg (blood glucose level [2]; [6]): 81% |
| CCCOc1ccc(C=C2SC(=S)NC2=O)cc1OCC [Example 49, 5-[(3-ethoxy-4-propoxyphenyl)methylene]-2-thioxo-4-thiazolidinone] | 83 ± 5 | 77 ± 7 | 100 | 98 | – |
| CCCCCOc1ccc(C=C2SC(=S)NC2=O)cc1OC [Example 57, 5-[(3-methoxy-4-pentoxyphenyl)methylene]-2-thioxo-4-thiazolidinone sodium salt] | – | – | – | – | response vs control in vivo at 5 mg/kg (blood glucose level [1]; 2 h, read-out: Percent of Initial Blood Glucose Level After 2 hrs., 5 mg/kg, intraperitoneal, 2 hrs): 82 ± 6%; response vs control in vivo at 10 mg/kg (blood glucose level [1]; 2 h, read-out: Percent of Initial Blood Glucose Level After 2 hrs., 10 mg/kg, intraperitoneal, 2 hrs): 95 ± 3%; response vs control in vivo at 5 mg/kg (blood glucose level [1]; 4 h, read-out: Percent of Initial Blood Glucose Level After 4 hrs., 5 mg/kg, intraperitoneal, 4 hrs): 68 ± 5%; response vs control in vivo at 10 mg/kg (blood glucose level [1]; 4 h, read-out: Percent of Initial Blood Glucose Level After 4 hrs., 10 mg/kg, intraperitoneal, 4 hrs): 87 ± 6%; response vs control in vivo at 200 mg/kg (blood glucose level [2]; po, 3 h, read-out: Percent of Initial Blood Glucose Level After 3 hrs.): 84%; response vs control in vivo at 200 mg/kg (blood glucose level [2]; po, 5 h, read-out: Percent of Initial Blood Glucose Level After 5 hrs.): 73% |
| CCOc1cc(C=C2SC(=S)NC2=O)ccc1OC [Example 58, 5-[(3-ethoxy-4-methoxyphenyl)methylene]-2-thioxo-4-thiazolidinone] | 67 ± 2 | 75 ± 5 | 100 | 100 | – |
| CCCOc1ccc(C=C2SC(=S)NC2=O)cc1 [Example 61, 5-[(4-propoxyphenyl)methylene]-2-thioxo-4-thiazolidinone] | – | 61 ± 5 | 89 | 82 | – |
| Cc1cc(C=C2SC(=S)NC2=O)cc(C)c1O [Example 62, 5-[(3,5-dimethyl-4-hydroxyphenyl)methylene]-2-thioxo-4-thiazolidinone] | – | – | 78 | 53 | – |
| COc1cc(C=C2SC(=S)NC2=O)cc(OC)c1O [Example 63, 5-[(3,5-dimethoxy-4-hydroxyphenyl)methylene]-2-thioxo-4-thiazolidinone] | – | – | 69 | 52 | inhibition at 4.15 µg/mL (stock) (Human liver cathepsin D): 53% |
| CCCCCOc1ccc(C=C2SC(=S)N(C)C2=O)cc1OC [Example 65, 5-[(3-methoxy-4-pentoxyphenyl)methylene]-2-thioxo-3-methyl-4-thiazolidinone] | – | – | 100 | 91 | – |
| CCCCCOc1ccc(C=C2SCNC2=O)cc1OC [Example 66, 5-[(3-methoxy-4-pentoxyphenyl)methylene]-4-thiazolidinone] | – | – | 100 | 86 | – |
| CCCCCOc1ccc(CC2SCNC2=O)cc1OC (stereo not drawn) [Example 67, 5-[(3-methoxy-4-pentoxyphenyl)methyl]-4-thiazolidinone] | – | – | 92 | 88 | – |
| CCCCCCOc1ccc(C=C2SC(=S)NC2=O)cc1OC [Example 68, 5-[(3-methoxy-4-hexoxyphenyl)methylene]-2-thioxo-4-thiazolidinone] | – | – | 88 | 89 | IC50 (Human liver cathepsin D): 10.2 µM; inhibition at 4.15 µg/mL (stock) (Human liver cathepsin D): 53.7% |
| CCCCCCCCOc1ccc(C=C2SC(=S)NC2=O)cc1OC [Example 69, 5-[(3-methoxy-4-octoxyphenyl)methylene]-2-thioxo-4-thiazolidinone] | – | – | 93 | 88 | IC50 (Human liver cathepsin D): 2.1 µM; inhibition at 4.15 µg/mL (stock) (Human liver cathepsin D): 51% |
